Experimental findings from patent US12010993B2, “Granular agricultural compositions” (OMS Investments, Inc., priority 2020, dated 2024) are described below.

For assay [1], the system named is Kentucky bluegrass. In words: Turfgrass greening vs commercial greening products, Kentucky bluegrass, Table 32. The format is in vivo. Here is the method:
(§1) To further explain the positive greening response of Formulation 2, two additional trials were conducted on Kentucky bluegrass and perennial ryegrass. The additional trials compared Formulations 2 and 5 with other commercial greening products at equivalent nitrogen rates to better understand the speed of the greening response as well as the darkness of the greening response. Application rates are described in Table 31. The commercial greening products include Green Max™ Lawn Food and Turf Builder® Lawn Food available from the Scotts Company LLC (Marysville, OH). Urea was also evaluated.
(§2) For each trial, preceding application, mowing was withheld for 24 to 48 hours to ensure sufficient leaf area was present for formulation absorption. The experimental unit for turfgrass color response testing was a 3′×3′ plot. The research area for turfgrass color response contained minimal weed pressure so that product impact could be accurately and consistently assessed. Plots were separated on each side by a 2 ft. untreated buffer strip.
(§3) Formulations 2 and 5 were applied early in the morning to dew-laden turf. Green Max™ Lawn Food, Turf Builder® Lawn Food, and urea were all applied to dry turf once the morning dew had dissipated. All treatments were applied using a shaker jar and spreader box to ensure even particle coverage over the plot. Treatments applied to dry turf were watered in immediately after application with 0.18″ of water and wet-foliage applied treatments remained on the leaf surface for 24 hours prior to being watered in with 0.18″ of water. This trial design allowed for comparative evaluation of the response of turf to foliar nitrogen and iron compared to foliar nitrogen; soil applied nitrogen; and soil applied nitrogen and iron at two different rates of iron application. Turfgrass color was rated visually using the National Turfgrass Evaluation Program color rating scale (1-9). Treatments were rated for color 3 and 6 hours after application, and then 1, 3, 7, 14, and 20 days after application. Table 32 depicts testing of Kentucky bluegrass while Table 33 depicts testing of Perennial ryegrass.

Assay [2] relates to perennial ryegrass. Put plainly: Turfgrass greening vs commercial greening products, perennial ryegrass, Table 33. The format is in vivo. As to the method:
as §1, §2, §3

Molecules are shown by their SMILES.

As to `NC(N)=O` [Urea], the “Turf Color (1-9)” value was found to be 3.88 in assay [1] (1 D after initial application); 4.00 in assay [1] (3 D after initial application); 4.63 in assay [1] (7 D after initial application); 5.25 in assay [1] (14 D after initial application); 6.25 in assay [1] (20 D after initial application); 3.75 in assay [1] (3 hr after initial application). The “Turf Color (1-9)” value in assay [1] (6 hr after initial application) is on record as 3.75; in assay [2] (1 D after initial application), 3.50; in assay [2] (3 D after initial application), 3.13; in assay [2] (7 D after initial application), 4.63; in assay [2] (14 D after initial application) it was 4.88; in assay [2] (20 D after initial application), 6.13. In addition, the “Turf Color (1-9)” value in assay [2] (3 hr after initial application) came to 3.13; in assay [2] (6 hr after initial application) it was 3.50.
